Experimental data from patent US7585895B2, “Therapeutic substituted cyclopentanes” (Allergan, Inc., priority 2005, dated 2009).

How the values were obtained:
Format in all cases: cell-based
hDP/Gqs5 = target: T1, hDP/Gqs5 (Homo sapiens, UniProt Q13258); assay: FLIPR calcium signal, DP; details: HEK-293(EBNA)
T1 construct: expressed in transfected cells
T1 sequence (Q13258 1-359): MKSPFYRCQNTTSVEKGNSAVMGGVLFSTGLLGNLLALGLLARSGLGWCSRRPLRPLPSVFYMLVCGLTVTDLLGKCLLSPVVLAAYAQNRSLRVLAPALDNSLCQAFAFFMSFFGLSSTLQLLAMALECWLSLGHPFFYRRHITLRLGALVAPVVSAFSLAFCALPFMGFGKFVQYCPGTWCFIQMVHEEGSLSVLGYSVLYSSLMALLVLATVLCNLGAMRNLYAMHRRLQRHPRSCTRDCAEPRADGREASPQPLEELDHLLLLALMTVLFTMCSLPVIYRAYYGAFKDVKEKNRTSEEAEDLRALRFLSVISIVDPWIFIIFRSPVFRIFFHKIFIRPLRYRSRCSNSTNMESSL
Protocol: (§1) HEK-293(EBNA) cells, stably expressing one type or subtype of recombinant human prostaglandin receptors (prostaglandin receptors expressed: hDP/Gqs5; hEP1; hEP2/Gqs5; hEP3A/Gqi5; hEP4/Gqs5; hFP; hIP; hTP), were cultured in 100 mm culture dishes in high-glucose DMEM medium containing 10% fetal bovine serum, 2 mM 1-glutamine, 250 μg/ml geneticin (G418) and 200 μg/ml hygromycin B as selection markers, and 100 units/ml penicillin G, 100 μg/ml streptomycin and 0.25 μg/ml amphotericin B.
(§2) Cells were seeded at a density of 5×10^4 cells per well in Biocoat® Poly-D-lysine-coated black-wall, clear-bottom 96-well plates (Becton-Dickinson) and allowed to attach overnight in an incubator at 37° C. Cells were then washed two times with HBSS-HEPES buffer (Hanks Balanced Salt Solution without bicarbonate and phenol red, 20 mM HEPES, pH 7.4) using a Denley Cellwash plate washer (Labsystems). After 45 minutes of dye-loading in the dark, using the calcium-sensitive dye Fluo-4 AM at a final concentration of 2 μM, plates were washed four times with HBSS-HEPES buffer to remove excess dye leaving 100 μl in each well. Plates were re-equilibrated to 37° C. for a few minutes.
(§3) Cells were excited with an Argon laser at 488 nm, and emission was measured through a 510-570 nm bandwidth emission filter (FLIPR™, Molecular Devices, Sunnyvale, Calif.). Drug solution was added in a 50 μl volume to each well to give the desired final concentration. The peak increase in fluorescence intensity was recorded for each well. On each plate, four wells each served as negative (HBSS-HEPES buffer) and positive controls (standard agonists: BW245C (hDP); PGE2 (HEP1; hEP2/Gqs5; hEP3A/Gqi5; hEP4/Gqs5); PGF2α (hFP); carbacyclin (hIP); U-46619 (hTP), depending on receptor). The peak fluorescence change in each drug-containing well was then expressed relative to the controls.
(§4) Compounds were tested in a high-throughput (HTS) or concentration-response (CoRe) format. In the HTS format, forty-four compounds per plate were examined in duplicates at a concentration of 10^−5 M. To generate concentration-response curves, four compounds per plate were tested in duplicates in a concentration range between 10^−5 and 10^−11 M. The duplicate values were averaged. In either, HTS or CoRe format each compound was tested on at least 3 separate plates using cells from different passages to give an n≧3.

hEP1 = target: T2, hEP1 (Homo sapiens, UniProt P34995); assay: FLIPR calcium signal, EP1; details: HEK-293(EBNA)
T2 construct: expressed in transfected cells
T2 sequence (P34995 1-402): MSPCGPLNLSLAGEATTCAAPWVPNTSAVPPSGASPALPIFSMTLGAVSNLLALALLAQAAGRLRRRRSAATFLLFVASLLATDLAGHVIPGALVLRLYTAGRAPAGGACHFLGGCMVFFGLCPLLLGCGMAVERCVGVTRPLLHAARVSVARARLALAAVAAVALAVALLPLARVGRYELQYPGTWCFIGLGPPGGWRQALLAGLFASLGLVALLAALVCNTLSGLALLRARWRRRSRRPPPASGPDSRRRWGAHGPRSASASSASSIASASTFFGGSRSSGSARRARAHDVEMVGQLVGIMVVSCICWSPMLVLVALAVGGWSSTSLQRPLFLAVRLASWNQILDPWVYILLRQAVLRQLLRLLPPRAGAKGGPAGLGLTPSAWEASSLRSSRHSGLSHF
Protocol: as §1, §2, §3, §4

hEP2/Gqs5 = target: T3, hEP2/Gqs5 (Homo sapiens, UniProt P43116); assay: FLIPR calcium signal, EP2; details: HEK-293(EBNA), value outside parentheses, read-out: Ca2+ Signal-EC50 (nM) EP2
T3 construct: expressed in transfected cells
Protocol: as §1, §2, §3, §4

hIP = target: T4, hIP (Homo sapiens, UniProt P43119); assay: FLIPR calcium signal, IP; details: HEK-293(EBNA); for EC50: read-out: Ca2+ Signal-EC50 (nM) IP
T4 construct: expressed in transfected cells
Protocol: as §1, §2, §3, §4

EP2 = EP2 (Homo sapiens, UniProt P43116); assay: cAMP assay, HEK-EBNA cells expressing EP2; design: expressed in transfected cells; host or cells: HEK-EBNA; details: value in parentheses in EP2 column, read-out: EP2 EC50 (nM), measurement of cAMP (data in parentheses)
Protocol: A 384-well drug plate was prepared to contain 6 test compounds, PGE2 and cAMP in 16 serial dilutions in triplicate, using a Biomek station. HEK-EBNA cells expressing a target PG receptor subtype (EP2 or EP4) were suspended in a stimulation buffer (HBSS, 0.1% BSA, 0.5 mM IBMX and 5 mM HEPES, pH 7.4) in a density of 10^4 cells/5 μl. The reaction was initiated by mixing 5 μL drug dilutions with 5 μl of HEK-EBNA cells in a well, carried out for 30 min at room temperature, and followed by the addition of 5 μl anti-cAMP acceptor beads in the control buffer with Tween-20 (25 mM NaCl, 0.03% Tween-20, 5 mM HEPES, pH7.4). After 30 min in the dark at room temperature, the mixtures were incubated with 15 μl biotinylated-cAMP/strepavidin donor beads in Lysis/Detection buffer (0.1% BSA, 0.3% Tween-20 and 5 mM HEPES, pH7.4) for 45 min at the room temperature. Fluorescence changes were read using a Fusion-alpha HT microplate reader.

T3 sequence (P43116 whole entry): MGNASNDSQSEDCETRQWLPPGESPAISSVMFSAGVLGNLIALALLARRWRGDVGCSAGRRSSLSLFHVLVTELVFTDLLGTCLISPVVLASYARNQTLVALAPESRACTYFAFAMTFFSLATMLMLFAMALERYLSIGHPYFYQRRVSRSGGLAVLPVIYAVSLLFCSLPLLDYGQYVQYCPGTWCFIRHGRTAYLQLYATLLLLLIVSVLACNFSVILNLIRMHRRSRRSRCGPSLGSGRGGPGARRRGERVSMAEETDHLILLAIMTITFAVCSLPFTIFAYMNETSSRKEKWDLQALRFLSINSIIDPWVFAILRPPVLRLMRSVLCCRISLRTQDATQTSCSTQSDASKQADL
Sequence of EP2 (P43116 whole entry): as above
T4 sequence (P43119 whole entry): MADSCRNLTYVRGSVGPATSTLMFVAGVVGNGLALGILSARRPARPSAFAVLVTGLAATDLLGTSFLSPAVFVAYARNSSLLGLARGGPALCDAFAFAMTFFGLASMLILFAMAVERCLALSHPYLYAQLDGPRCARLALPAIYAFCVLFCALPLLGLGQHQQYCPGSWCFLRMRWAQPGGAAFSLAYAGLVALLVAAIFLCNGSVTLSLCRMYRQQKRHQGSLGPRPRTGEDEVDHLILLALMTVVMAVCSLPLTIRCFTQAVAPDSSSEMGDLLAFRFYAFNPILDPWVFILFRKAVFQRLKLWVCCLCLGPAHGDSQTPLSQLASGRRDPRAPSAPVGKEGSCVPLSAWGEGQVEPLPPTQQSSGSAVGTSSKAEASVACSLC

Structure (SMILES): O=C(O)CCC/C=C\C[C@@H]1[C@@H](c2ccc(C(O)CCC3CCCCC3)cc2)[C@H](O)C[C@H]1Cl (stereo partly drawn) [Entry 15, (Z)-7-{(1R,2S,3R,5R)-5-Chloro-2-[4-(3-cyclohexyl-1-hydroxy-propyl)-phenyl]-3-hydroxy-cyclopentyl}-hept-5-enoic acid]
- Ca2+ Signal-EC50 (nM) DP (hDP/Gqs5): not active
- Ca2+ Signal-EC50 (nM) EP1 (hEP1): not active
- EC50 (hEP2/Gqs5): 495 nM
- Ca2+ Signal-EC50 (nM) IP (hIP): not active
- EC50 (EP2): 176 nM

Structure (SMILES): CCCCC(O)C(C)(C)c1ccc([C@@H]2[C@@H](C/C=C\CCCC(=O)O)[C@H](Cl)C[C@H]2O)cc1 (mixture of isomers) [Entry 32, (Z)-7-{(1R,2S,3R,5R)-5-Chloro-3-hydroxy-2-[4-(2-hydroxy-1,1-dimethyl-hexyl)-phenyl]-cyclopentyl}-hept-5-enoic acid]
- Ca2+ Signal-EC50 (nM) DP (hDP/Gqs5): not active
- Ca2+ Signal-EC50 (nM) EP1 (hEP1): not active
- EC50 (hEP2/Gqs5): 164 nM
- Ca2+ Signal-EC50 (nM) IP (hIP): not active
- EC50 (EP2): 9 nM

Structure (SMILES): CCCCCC(O)c1ccc([C@@H]2[C@@H](CCCCCCC(=O)O)[C@H](Cl)C[C@H]2O)cc1 (stereo partly drawn) [Entry 14, 7-{(1R,2S,3R,5R)-5-Chloro-3-hydroxy-2-[4-(1-hydroxy-hexyl)-phenyl]-cyclopentyl}-heptanoic acid]
- Ca2+ Signal-EC50 (nM) DP (hDP/Gqs5): not active
- Ca2+ Signal-EC50 (nM) EP1 (hEP1): not active
- EC50 (hEP2/Gqs5): 28 nM
- Ca2+ Signal-EC50 (nM) IP (hIP): not active
- EC50 (EP2): 76 nM

Structure (SMILES): CCCCC(O)c1cccc([C@@H]2[C@@H](C/C=C\CCCC(=O)O)[C@H](Cl)C[C@H]2O)c1 (stereo partly drawn) [Entry 30, (Z)-7-{(1R,2S,3R,5R)-5-Chloro-3-hydroxy-2-[3-(1-hydroxy-pentyl)-phenyl]-cyclopentyl}-hept-5-enoic acid]
- Ca2+ Signal-EC50 (nM) DP (hDP/Gqs5): not active
- Ca2+ Signal-EC50 (nM) EP1 (hEP1): not active
- EC50 (hEP2/Gqs5): 68 nM
- EC50 (hIP): 2060 nM
- EC50 (EP2): 10 nM

Structure (SMILES): O=C(O)CCCCCC[C@@H]1[C@@H](c2ccc(C(O)CCC3CCCCC3)cc2)[C@H](O)C[C@H]1Cl (stereo partly drawn) [Entry 16, 7-{(1R,2S,3R,5R)-5-Chloro-2-[4-(3-cyclohexyl-1-hydroxy-propyl)-phenyl]-3-hydroxy-cyclopentyl}-heptanoic acid]
- Ca2+ Signal-EC50 (nM) DP (hDP/Gqs5): not active
- Ca2+ Signal-EC50 (nM) EP1 (hEP1): not active
- EC50 (hEP2/Gqs5): 2330 nM
- Ca2+ Signal-EC50 (nM) IP (hIP): not active
- EC50 (EP2): 5260 nM

Structure (SMILES): CCCCCC(O)c1ccc([C@@H]2[C@@H](C/C=C\CCCC(=O)O)[C@H](Cl)C[C@H]2O)cc1 (single isomer, unassigned) [Entry 12]
- Ca2+ Signal-EC50 (nM) DP (hDP/Gqs5): not active
- Ca2+ Signal-EC50 (nM) EP1 (hEP1): not active
- EC50 (hEP2/Gqs5): 36 nM
- Ca2+ Signal-EC50 (nM) IP (hIP): not active
- EC50 (EP2): 38 nM

Structure (SMILES): CCCCCC(O)c1cccc([C@@H]2[C@@H](C/C=C\CCCC(=O)O)[C@H](Cl)C[C@H]2O)c1 (stereo partly drawn) [Entry 29, (Z)-7-{(1R,2S,3R,5R)-5-Chloro-3-hydroxy-2-[3-(1-hydroxy-hexyl)-phenyl]-cyclopentyl}-hept-5-enoic acid]
- Ca2+ Signal-EC50 (nM) DP (hDP/Gqs5): not active
- Ca2+ Signal-EC50 (nM) EP1 (hEP1): not active
- EC50 (hEP2/Gqs5): 119 nM
- EC50 (hIP): 8490 nM
- EC50 (EP2): 38 nM

Structure (SMILES): O=C(O)CCC/C=C\C[C@@H]1[C@@H](c2ccc(C(O)CC3CCCCC3)cc2)[C@H](O)C[C@H]1Cl (mixture of isomers) [Entry 17, (Z)-7-{(1R,2S,3R,5R)-5-Chloro-2-[4-(2-cyclohexyl-1-hydroxy-ethyl)-phenyl]-3-hydroxy-cyclopentyl}-hept-5-enoic acid]
- Ca2+ Signal-EC50 (nM) DP (hDP/Gqs5): not active
- Ca2+ Signal-EC50 (nM) EP1 (hEP1): not active
- EC50 (hEP2/Gqs5): 953 nM
- Ca2+ Signal-EC50 (nM) IP (hIP): not active
- EC50 (EP2): 495 nM

Structure (SMILES): CCCCCC(O)c1ccc([C@@H]2[C@@H](C/C=C\CCCC(=O)O)[C@@H](Cl)C[C@H]2O)cc1 (stereo partly drawn) [Entry 9, (Z)-7-{(1R,2S,3R,5S)-5-Chloro-3-hydroxy-2-[4-(1-hydroxy-hexyl)-phenyl]-cyclopentyl}-hept-5-enoic acid]
- Ca2+ Signal-EC50 (nM) DP (hDP/Gqs5): not active
- Ca2+ Signal-EC50 (nM) EP1 (hEP1): not active
- EC50 (hEP2/Gqs5): 242 nM
- EC50 (hIP): 6880 nM
- EC50 (EP2): 324 nM

Structure (SMILES): O=C(O)CCCCCC[C@@H]1[C@@H](c2ccc(C(O)CC3CCCCC3)cc2)[C@H](O)C[C@H]1Cl (stereo partly drawn) [Entry 18, 7-{(1R,2S,3R,5R)-5-Chloro-2-[4-(2-cyclohexyl-1-hydroxy-ethyl)-phenyl]-3-hydroxy-cyclopentyl}-heptanoic acid]
- Ca2+ Signal-EC50 (nM) DP (hDP/Gqs5): not active
- Ca2+ Signal-EC50 (nM) EP1 (hEP1): not active
- EC50 (hEP2/Gqs5): 2250 nM
- Ca2+ Signal-EC50 (nM) IP (hIP): not active
- EC50 (EP2): 2660 nM

Structure (SMILES): CCCCCC(O)c1ccc([C@@H]2[C@@H](C/C=C\CCCC(=O)O)[C@H](F)C[C@H]2O)cc1 (mixture of isomers) [Entry 8, (Z)-7-{(1R,2S,3R,5R)-5-Fluoro-3-hydroxy-2-[4-(1-hydroxy-hexyl)-phenyl]-cyclopentyl}-hept-5-enoic acid]
- Ca2+ Signal-EC50 (nM) DP (hDP/Gqs5): not active
- Ca2+ Signal-EC50 (nM) EP1 (hEP1): not active
- EC50 (hEP2/Gqs5): 53 nM
- EC50 (hIP): 10100 nM
- EC50 (EP2): 8 nM

Structure (SMILES): CCCCC(O)c1ccc([C@@H]2[C@@H](C/C=C\CCCC(=O)O)[C@H](Cl)C[C@H]2O)cc1 (mixture of isomers) [Entry 27, (Z)-7-{(1R,2S,3R,5R)-5-Chloro-3-hydroxy-2-[4-(1-hydroxy-pentyl)-phenyl]-cyclopentyl}-hept-5-enoic acid]
- Ca2+ Signal-EC50 (nM) DP (hDP/Gqs5): not active
- Ca2+ Signal-EC50 (nM) EP1 (hEP1): not active
- Ca2+ Signal-EC50 (nM) IP (hIP): not active
- EC50 (EP2): 10 nM

Structure (SMILES): O=C(O)CCC/C=C\C[C@@H]1[C@@H](c2ccc(C(O)c3ccccc3)cc2)[C@H](O)C[C@H]1Cl (stereo partly drawn) [Entry 28, (Z)-7-{(1R,2S,3R,5R)-5-Chloro-3-hydroxy-2-[4-(hydroxy-phenyl-methyl)-phenyl]-cyclopentyl}-hept-5-enoic acid]
- Ca2+ Signal-EC50 (nM) EP1 (hEP1): not active
- EC50 (hEP2/Gqs5): 142 nM
- EC50 (hIP): 1650 nM
- EC50 (EP2): 9 nM
